According to patent US12440500B2, “Phytoecdysones and the derivatives thereof for use in the treatment of neuromuscular diseases” (BIOPHYTIS, priority 2019, dated 2025):

Assays:
Format in all cases: in vivo, mouse
[1] = tested on: muscles Soleus, Plantaris and Tibialis of SMA mice; assay: Histological analysis of muscle cross-sections (Hematoxylin-Eosin): number and cross-section surface of muscle fibers
Procedure: At P11, one hour after their last gavage, the treated mice were anaesthetized with pentobarbital 1% at 6 μL/g of mouse then the extensor muscles Soleus, with a mixed typology, extensor Plantaris, with a fast typology, and flexor Tibialis, with a fast typology, were sampled in order to conduct histological or molecular studies. After sampling, the muscles Soleus, Plantaris and Tibialis were included individually in a preservation medium then frozen in cooled isopentane. For each muscle, medial cross-sections 10 μm thick were realized. These sections were stained with Hematoxyline-Eosin, dehydrated and mounted in an inclusion medium. The images of these sections were taken with a microscope (with a magnification ×200). In order to obtain images with an impression of relief, the differential interference contrast technique was used. From these images, the number of muscle fibers of each muscle and the cross-section surface of 20% of these fibers were counted using image processing software (FIG. 2).

[2] = tested on: AKT; assay: Western blot, phosphorylation of AKT in SMA mice
Procedure: (§1) The frozen muscle Plantaris was homogenized in extraction buffer by mechanical grinding. The supernatant containing the protein extract was sampled, then the protein extracts were then dosed according to the Lowry protein assay. An electrophoresis on SDS-PAGE gel was conducted, then the separated proteins were transferred onto membranes. The primary antibodies used were the following: mouse monoclonal anti-SMN (1:5,000), rabbit polyclonal anti-Ser 473 phospho-AKT (1:1000), rabbit polyclonal anti-AKT ( 1/100), rabbit monoclonal anti phospho-ERK ½ (1:500), anti-MAP Kinase ½ (ERK ½) (1:1000). […] The optical density of each specific band was quantified with image processing software by subtracting the background and by normalizing with the optical density of the β-actin bands. For the controls treated with the vehicle, the values obtained were determined at 1 and the values of the other groups were normalized in relation to these controls and expresses as a relative quantity. […] The quantitative values of pAKT at the Plantaris represent 3 mice per group treated with the vehicle (control or SMA) and 4 mice treated with BIO101. The quantitative values of pERK at the Plantaris represent at least 4 mice per group. The quantitative values of SMN represent n=2. […]

[3] = tested on: ERK; assay: Western blot, phosphorylation of ERK in SMA mice
[4] = tested on: SMN protein; assay: Western blot, level of expression of the SMN protein in SMA mice
Procedure: as §1

[5] = tested on: slow, intermediate and fast motor neurons of SMA mice; assay: Motor neuron sub-populations (ChAT/ERRβ/MMP9 co-labeling, lumbar spinal cord)
Procedure: In a manner complementary to the quantitative analysis of the number of motor neurons and of the size of their soma as well as the qualitative study concerning their location (medial or lateral in the ventral spinal cord), we studied the impact of the treatment by BIO101 on the protection of the sub-populations of motor neurons (slow motor neurons, intermediate motor neurons and fast motor neurons). This qualitative analysis of the sub-populations of motor neurons was carried out on thick cross-sections of the lumbar region of the spinal cord (L1-L5) of control or SMA mice treated or not with BIO101 by immunofluorescent labeling with Choline Acetyltransferase such as was described hereinabove (Biondi et al., 2008; Branchu et al., 2013) as well as an analysis of the type of motor neurons by immunofluorescence co-labeling with Estrogen-related receptor-β (ERRβ), a specific marker of the slow motor neurons, or with Matrix metallopeptidase 9 (MMP9), a specific marker of the fast motor neurons.
The anesthetized mice underwent an intracardiac infusion with PBS. The spinal cords of the mice were taken, fixed then rinsed. The lumbar region of the spinal cords (L1-L5) was coated in a 4% solution of agarose. 50 μm cross-sections were made using a vibratome over the entire length of the sample. One section every 5 sections of spinal cord was then used for the immunohistochemical analyses. […]

[6] = muscle Plantaris, SMA mice treated P0 to P11
[7] = spinal cord, SMA mice treated daily for 11 days

CC(C)(O)CC[C@@H](O)[C@](C)(O)[C@H]1CC[C@@]2(O)C3=CC(=O)[C@@H]4C[C@@H](O)[C@@H](O)C[C@]4(C)[C@H]3CC[C@]12C [BIO101, 20-hydroxyecdysone]
proportion of muscle fibers with cross-section surface greater than 300 μm^2 ([1]; Plantaris, FIG. 13B): increase | proportion of muscle fibers with cross-section surface less than 200 μm^2 ([1]; Plantaris, FIG. 13B): decrease | atrophy of the muscle fibers (cross-section surface) in relation to healthy control mice ([1]; Plantaris, P11, SMA mice treated P0 to P11 (SMA vehicle 46%)): 17.9% | proportion of fibers with cross-section surface between 0 and 100 μm^2 ([1]; Plantaris, versus SMA vehicle): decrease | proportion of fibers with cross-section surface between 200 and 400 μm^2 ([1]; Plantaris, versus SMA vehicle): increase | proportion of muscle fibers with cross-section surface greater than 300 μm^2 ([1]; Soleus, FIG. 13C): increase | proportion of muscle fibers with cross-section surface less than 200 μm^2 ([1]; Soleus, FIG. 13C): decrease | atrophy of the muscle fibers (cross-section surface) in relation to healthy control mice ([1]; Soleus, P11, SMA mice treated P0 to P11 (SMA vehicle 50.2%)): 37.8% | proportion of fibers with cross-section surface between 100 and 200 μm^2 ([1]; Soleus, versus SMA vehicle): decrease | proportion of fibers with cross-section surface between 200 and 400 μm^2 ([1]; Soleus, versus SMA vehicle): increase | atrophy of the muscle fibers (cross-section surface) in relation to healthy control mice ([1]; Tibialis, P11, SMA mice treated P0 to P11 (SMA vehicle 56.1%)): 32.7% | number of muscle fibers ([1]; Tibialis, SMA mice treated P0 to P11, 50 mg/kg): 2,358 fibers | increase in number of muscle fibers compared to vehicle ([1]; Tibialis, SMA mice treated P0 to P11, p<0.05): 14% | proportion of fibers with cross-section surface between 400 and 800 μm^2 ([1]; Tibialis, versus SMA vehicle): significant increase | proportion of fibers with cross-section surface between 100 and 200 μm^2 ([1]; Tibialis, versus SMA vehicle, p<0.05): decreases significantly | phosphorylation of AKT (pAKT) [2, 6]: very substantially increasing | level of pAKT [2, 7]: increasing | level of phosphorylation of ERK (pERK) [3, 6]: greatly decreased | level of pERK [3, 7]: decreasing | level of expression of SMN [4, 6]: no modification | level of SMN ([4]; spinal cord, SMA mice treated for 11 days): does not allow for the restoration | number of fast motor neurons (ChAT+MMP9+) ([5]; SMA mice treated P0 to P11 (SMA vehicle 11), p<0.05): 14 | number of slow motor neurons (ChAT+ERRβ+) ([5]; between healthy vehicle, SMA vehicle and SMA treated groups): does not vary significantly
